# Data: US5589510A, “Method for inhibiting retroviral infection by administering a naphthalenesulfonic acid compound” (priority 1995, dated 1996)
# Read-outs that look alike come from different tables or passages of the source.
# Experiments:
# [1] = tested on: TA98, TA1535, TA1537, TA1538, TA100 and W2P2uvr; experiment: Ames Test (in the presence of S9); format: cell-based, Salmonella typhimurium
# Excerpt: Six Salmonella typhimuriumstrai strains, TA98, TA1535, TA1537, TA1538, TA100 and W2P2uvr were used in this experiment.
# [2] = LD50, intravenous, mice; format: in vivo; conditions: mouse, in vivo, female mice, mortalities within 1 week
# Experimental: The test material was administered intravenously to 5 female mice in five increasing doses. Mortalities were recorded within 1 week, and the LD50 was determined with the aid of statistical calculations.
# [3] = target: T1, recombinant reverse transcriptase (RT) (Human immunodeficiency virus type 1 group M subtype B, UniProt P04585); experiment: Reverse transcriptase inhibition assay; format: biochemical, HIV-1
# T1 construct: purchased Worthington Biochemical Corporation
# Experimental: Inhibition of recombinant reverse transcriptase (RT) was performed by using commercially available Boehringer Mannheim RT assay kit (Cat. No. 1468 120) based on incorporation of digoxigenin labeled dUTP into DNA. Recombinant enzyme from HIV-1 was purchased from Worthington Biochemical Corporation. The level of anti-RT activity in the sample was determined by measurement of absorbance using an ELISA reader at 405 nm.
# [4] = tested on: HIV-1 RF; experiment: Antiviral assay, Experimental Protocol I (compound added after infection); format: cell-based; conditions: Human immunodeficiency virus 1, 240 h, p24 ELISA, read-out: % Inhibition (after day 10); for inhibition at 1.25 µg/mL: 1.25 μg/ml; for inhibition at 2.5 µg/mL: 2.5 μg/ml; for inhibition at 5 µg/mL: 5 μg/ml; for inhibition at 0.6 µg/mL: 0.6 μg/ml; for inhibition at 0.3 µg/mL: 0.3 μg/ml
# Experimental: HIV-1 infectivity studies were conducted in CEM, H9, MT2 cells and peripheral blood mononuclear cells (PBMC). CEM, H9 and MT2 were grown in RPMI1640 medium, 10% heat-inactivated fetal bovine serum (FBS). PBMCs were stimulated with 4 μg/ml PHA for 48 hours in RPMI1640, 10% FBS before HIV-1 infection. After HIV-1 infection, PBMCs were maintained in RPMI 1640, 10% FBS and 10 10 units/ml IL-2. The major HIV-1 isolates used were MN, IIIB, SF2, AZT-sensitive A018 and AZT-resistant A018 provided by NIH AIDS research and reference reagent program. Two major antiviral assays were developed to determine the antiviral activities of the compounds of this invention (as inhibitors).
# I. The cells were infected with HIV-1 RF or IIIB at an infectivity multiplicity (moi) of 0.001 in the absence of a compound of this invention for one hour. HIV-1 infected cells were washed once with PBS, resuspended in RPMI1640, 10% FBS medium and distributed in 24-well culture dishes (5×10^5 cells per well) in the presence of a compound of this invention as inhibitor. […]
# [5] = tested on: HIV-1 patient isolate IH; experiment: Inhibition of HIV-1 patient isolate IH in PBMCs; format: cell-based; conditions: Human immunodeficiency virus 1, PBMC, 288 h, read-out: % Inhibition (after day 12); for inhibition at 5 µg/mL: 5 μg/ml; for inhibition at 10 µg/mL: 10 μg/ml; for inhibition at 20 µg/mL: 20 μg/ml; for inhibition at 2.5 µg/mL: 2.5 μg/ml
# Experimental: The inhibitory effects of additional naphthalenesulfonic acid compounds were tested as follows: Experimental Details:
# PBMCs were activated for 48 hours in conditioned medium containing PHA at a concentration of 4 μg/ml. […] The test compound, previously dissolved in a glucose solution (1 mg/ml), was then added to each of the wells to achieve the appropriate concentration. The plate was then incubated overnight (about 15 hours) after which 50 μl of cell-free HIV-1 patient isolate was added to each well. The plates were incubated for further 6 to 8 hours after which all free floating solution of virus was washed off. Washing was performed four times.
# After removal of the virus, all cultures were resuspended in conditioned medium containing 10% FCS.
# For control experiments virus growth was monitored in either 10% FCS or 50% FCS throughout the observation period (15 days).
# [6] = tested on: HIV-1 RF; experiment: Antiviral assay, Experimental Protocol II (virus incubated with compound before cells); format: cell-based; conditions: Human immunodeficiency virus 1, 240 h, 10% FCS, p24 ELISA, read-out: % Inhibition (after day 10)
# [7] = the higher the value, the higher the mutagenicity
SMILES,Ames Test result [1],LD50 at 168 h [2],inhibition at 0.5 µM [3],inhibition at 1.25 µg/mL ([4]; 10% FCS),inhibition at 2.5 µg/mL ([4]; 10% FCS),inhibition at 5 µg/mL ([4]; 10% FCS),inhibition at 5 µg/mL ([5]; 10% FCS),inhibition at 10 µg/mL ([5]; 10% FCS),inhibition at 20 µg/mL ([5]; 10% FCS),inhibition at 0.6 µg/mL ([4]; 10% FCS),also measured
CCC(C)(C)c1ccc(OCC(=O)Nc2cc(S(=O)(=O)O)cc3cc(S(=O)(=O)O)c(N=Nc4cc(OC)c(N=Nc5c(S(=O)(=O)O)cc6cc(S(=O)(=O)O)cc(NC(C)=O)c6c5O)cc4OC)c(O)c23)c(C(C)(C)CC)c1 [Compound 3],Negative,150 mg/kg,77%,96%,100%,100%,–,–,–,–,–
COc1cc(N=Nc2c(S(=O)(=O)O)cc3cc(S(=O)(=O)O)cc(NC(=O)c4cccc(Cl)c4Cl)c3c2O)c(OC)cc1N=Nc1c(S(=O)(=O)O)cc2cc(S(=O)(=O)O)cc(NC(=O)COc3ccccc3)c2c1O [Compound 4],Negative,160 mg/kg,–,–,–,–,60%,88%,98%,–,–
COc1cc(N=Nc2c(S(=O)(=O)O)cc3cc(S(=O)(=O)O)cc(NC(=O)c4ccccc4)c3c2O)c(OC)cc1N=Nc1c(S(=O)(=O)O)cc2cc(S(=O)(=O)O)cc(NC(C)=O)c2c1O [Compound 5],Negative,120 mg/kg,–,87%,100%,100%,45%,77%,77%,45%,–
COc1cc(N=Nc2c(S(=O)(=O)O)cc3cc(S(=O)(=O)O)cc(NC(=O)c4cc(Cl)ccc4Cl)c3c2O)c(OC)cc1N=Nc1c(S(=O)(=O)O)cc2cc(S(=O)(=O)O)cc(NC(=O)c3cc(Cl)ccc3Cl)c2c1O [Compound 7],Positive,170 mg/kg,41%,99%,100%,100%,–,–,–,81%,"Ames Test, specific mutagenic activity ([1]; unit as printed for Compound 7): 0.05 colony no/g g; inhibition at 5 µM [3]: 75%; inhibition at 0.6 µg/mL ([4]; 50% Human Serum): 0%; inhibition at 1.25 µg/mL ([4]; 50% Human Serum): 0%; inhibition at 2.5 µg/mL ([4]; 50% Human Serum): 48%; inhibition at 5 µg/mL ([4]; 50% Human Serum): 97%"
COc1cc(N=Nc2c(S(=O)(=O)O)cc3cc(S(=O)(=O)O)cc(NC(=O)c4ccc(Cl)c(Cl)c4)c3c2O)c(OC)cc1N=Nc1c(S(=O)(=O)O)cc2cc(S(=O)(=O)O)cc(NC(=O)c3ccc(Cl)c(Cl)c3)c2c1O [Compound 10],Negative,140 mg/kg,55%,–,–,–,–,–,–,–,–
COc1cc(N=Nc2c(S(=O)(=O)O)cc3cc(S(=O)(=O)O)cc(NC(=O)c4ccc(Cl)cc4Cl)c3c2O)c(OC)cc1N=Nc1c(S(=O)(=O)O)cc2cc(S(=O)(=O)O)cc(NC(=O)c3ccc(Cl)cc3Cl)c2c1O [Compound 11],Positive,160 mg/kg,30%,100%,100%,100%,0%,100%,100%,100%,"Ames Test, specific mutagenic activity [1, 7]: 0.02 colony no/μg; inhibition at 2.5 µg/mL ([5]; 10% FCS): 0%; inhibition at 2.5 µg/mL ([5]; 50% Human Serum): 0%; inhibition at 5 µg/mL ([5]; 50% Human Serum): 0%; inhibition at 10 µg/mL ([5]; 50% Human Serum): 31%; inhibition at 20 µg/mL ([5]; 50% Human Serum): 100%; inhibition at 0.3 µg/mL ([4]; 10% FCS): 99%; inhibition at 0.6 µg/mL ([4]; 50% Human Serum): 55%; inhibition at 1.25 µg/mL ([4]; 50% Human Serum): 87%; inhibition at 2.5 µg/mL ([4]; 50% Human Serum): 93%; inhibition at 5 µg/mL ([4]; 50% Human Serum): 98%"
COc1cc(N=Nc2c(S(=O)(=O)O)cc3cc(S(=O)(=O)O)cc(NC(=O)c4cc(Cl)ccc4Cl)c3c2O)c(OC)cc1N=Nc1c(S(=O)(=O)O)cc2cc(S(=O)(=O)O)cc(NC(=O)c3ccc(Cl)c(Cl)c3)c2c1O [Compound 12],Negative,190 mg/kg,–,99%,100%,100%,85%,100%,100%,96%,inhibition at 2.5 µg/mL ([5]; 10% FCS): 0%; inhibition at 2.5 µg/mL ([5]; 50% Human Serum): 0%; inhibition at 5 µg/mL ([5]; 50% Human Serum): 0%; inhibition at 10 µg/mL ([5]; 50% Human Serum): 90%; inhibition at 20 µg/mL ([5]; 50% Human Serum): 93%; inhibition at 0.3 µg/mL ([4]; 10% FCS): 86%; inhibition at 0.6 µg/mL ([4]; 50% Human Serum): 0%; inhibition at 1.25 µg/mL ([4]; 50% Human Serum): 0%; inhibition at 2.5 µg/mL ([4]; 50% Human Serum): 40%; inhibition at 5 µg/mL ([4]; 50% Human Serum): 93%
COc1cc(N=Nc2c(S(=O)(=O)O)cc3cc(S(=O)(=O)O)cc(NC(=O)c4cccc5ccccc45)c3c2O)c(OC)cc1N=Nc1ccc2cc(S(=O)(=O)O)cc(NC(=O)c3ccccc3)c2c1O [Compound 13],Negative,160 mg/kg,–,–,–,–,55%,70%,100%,–,–
COc1cc(N=Nc2c(S(=O)(=O)O)cc3cc(S(=O)(=O)O)cc(NC(=O)c4cc(Cl)cc(Cl)c4)c3c2O)c(OC)cc1N=Nc1c(S(=O)(=O)O)cc2cc(S(=O)(=O)O)cc(NC(=O)Cc3ccccc3)c2c1O [Compound 14],Positive,160 mg/kg,–,–,–,–,–,–,–,–,"Ames Test, specific mutagenic activity [1, 7]: 0.12 colony no/μg; inhibition at 1.25 µg/mL ([6]; 1.25 μg/ml): 50%; inhibition at 2.5 µg/mL ([6]; 2.5 μg/ml): 56%; inhibition at 5 µg/mL ([6]; 5 μg/ml): 98%"
COc1cc(N=Nc2c(S(=O)(=O)O)cc3cc(S(=O)(=O)O)cc(NC(=O)Nc4cccc5ccccc45)c3c2O)c(OC)cc1N=Nc1c(S(=O)(=O)O)cc2cc(S(=O)(=O)O)cc(NC(C)=O)c2c1O [Compound 16],Positive,160 mg/kg,–,–,–,–,–,–,–,–,"Ames Test, specific mutagenic activity [1, 7]: 0.03 colony no/μg; inhibition at 5 µM [3]: 98%"
COc1cc(N=Nc2c(S(=O)(=O)O)cc3cc(S(=O)(=O)O)cc(NC(=O)c4ccc(Cl)cc4Cl)c3c2O)c(OC)cc1N=Nc1c(S(=O)(=O)O)cc2cc(S(=O)(=O)O)cc(NC(=O)Cc3ccc(Cl)cc3)c2c1O [Compound 18],Negative,135 mg/kg,–,–,–,–,–,–,–,–,inhibition at 5 µM [3]: 66%
COc1cc(N=Nc2c(S(=O)(=O)O)cc3cc(S(=O)(=O)O)cc(NC(=O)c4cccc(Cl)c4Cl)c3c2O)c(OC)cc1N=Nc1c(S(=O)(=O)O)cc2cc(S(=O)(=O)O)cc(NC(=O)c3ccccc3Cl)c2c1O [Compound 21],Negative,160 mg/kg,–,–,–,–,23%,77%,100%,–,inhibition at 2.5 µg/mL ([5]; 10% FCS): 0%; inhibition at 2.5 µg/mL ([5]; 50% Human Serum): 10%; inhibition at 5 µg/mL ([5]; 50% Human Serum): 23%; inhibition at 10 µg/mL ([5]; 50% Human Serum): 61%; inhibition at 20 µg/mL ([5]; 50% Human Serum): 100%
